Values after ≈ are worked out from the molar mass of the structure shown. Where two headings read alike, the source gives them in different places.
How the values were obtained:
Bord. bronchiseptica B08 = assay: Veterinary bacteria, MIC by two fold serial dilution in agar
Experimental: (§1) The activity of the compounds of the Examples against various organisms important in veterinary infections was determined using two fold serial dilutions in Diagnostic Sensitivity Test Agar inoculated with 10^4 organisms.

M. gallisepticum S6 = assay: Anti-mycoplasmal activity, MIC in Friis broth agarose; type: cell-based; settings: Friis broth solidified with 0.9% agarose, 6 days incubation at 37°C
M. hyorhinis ATCC 25021 = assay: as above; type: cell-based; settings: Friis broth solidified with 0.9% agarose, 6 days incubation at 37°C
Strep. pneumoniae CN33 = assay: Human bacteria, MIC by serial dilution in nutrient agar; type: cell-based; settings: nutrient agar with 5% chocolated horse blood, 18 hours at 37°C
Staph. aureus Russell = assay: as above; type: cell-based; settings: nutrient agar with 5% chocolated horse blood, 18 hours at 37°C
Bacillus subtilis 6633 = assay: as above; type: cell-based; settings: nutrient agar with 5% chocolated horse blood, 18 hours at 37°C
Ps. aeruginosa 10662 = assay: as above; type: cell-based; settings: nutrient agar with 5% chocolated horse blood, 18 hours at 37°C
Staph. aureus Oxford [1] = assay: Veterinary bacteria, MIC by two fold serial dilution in agar
Experimental: as §1

Past. multocida PA2 = assay: as above
Experimental: as §1

Strep. spp. 64/848-C = assay: Human bacteria, MIC by serial dilution in nutrient agar; type: cell-based; settings: nutrient agar with 5% chocolated horse blood, 18 hours at 37°C
[2] = test system: Corynebacterium pyogenes CY1; assay: Veterinary bacteria, MIC by two fold serial dilution in agar
Experimental: as §1

[3] = test system: M. suipneumoniae ATCC 25095; assay: Anti-mycoplasmal activity, MIC in Friis broth agarose; type: cell-based; settings: Friis broth solidified with 0.9% agarose, 6 days incubation at 37°C
[4] = test system: Pasteurella multocida 1633; assay: Human bacteria, MIC by serial dilution in nutrient agar; type: cell-based; settings: nutrient agar with 5% chocolated horse blood, 18 hours at 37°C
K. aerogenes A = assay: as above; type: cell-based; settings: nutrient agar with 5% chocolated horse blood, 18 hours at 37°C
S. typhimurium S18 = assay: Veterinary bacteria, MIC by two fold serial dilution in agar
Experimental: as §1

[5] = test system: Staph. aureus B4 (pen. resistant); assay: as above
Experimental: as §1

[6] = test system: Haemophilus influenzae Q1; assay: Human bacteria, MIC by serial dilution in nutrient agar; type: cell-based; settings: nutrient agar with 5% chocolated horse blood, 18 hours at 37°C
Strep. dysgalactiae SPD1 = assay: Veterinary bacteria, MIC by two fold serial dilution in agar
Experimental: as §1

M. suipneumoniae Str. 11 = assay: Anti-mycoplasmal activity, MIC in Friis broth agarose; type: cell-based; settings: Friis broth solidified with 0.9% agarose, 6 days incubation at 37°C
E. coli NCTC 10418 [7] = assay: Veterinary bacteria, MIC by two fold serial dilution in agar
Experimental: as §1

Staph. aureus Oxford [8] = assay: Human bacteria, MIC by serial dilution in nutrient agar; type: cell-based; settings: Staph. aureus Oxford (human panel), nutrient agar with 5% chocolated horse blood, 18 hours at 37°C
Past. haemolytica PA5 = assay: Veterinary bacteria, MIC by two fold serial dilution in agar
Experimental: as §1

E. coli E1 = assay: as above
Experimental: as §1

E. coli NCTC 10418 [9] = assay: Human bacteria, MIC by serial dilution in nutrient agar; type: cell-based; settings: E. coli NCTC 10418 (human panel), nutrient agar with 5% chocolated horse blood, 18 hours at 37°C
Strep. uberis SPU1 = assay: Veterinary bacteria, MIC by two fold serial dilution in agar
Experimental: as §1

[10] = test system: Staph. aureus 152 (pen. sens.); assay: as above
Experimental: as §1

E. coli ESS = assay: Human bacteria, MIC by serial dilution in nutrient agar; type: cell-based; settings: nutrient agar with 5% chocolated horse blood, 18 hours at 37°C
M. suipneumoniae JF 435 = assay: Anti-mycoplasmal activity, MIC in Friis broth agarose; type: cell-based; settings: Friis broth solidified with 0.9% agarose, 6 days incubation at 37°C
Strep. faecalis I = assay: Human bacteria, MIC by serial dilution in nutrient agar; type: cell-based; settings: nutrient agar with 5% chocolated horse blood, 18 hours at 37°C
[11] = test system: Erysipelothrix rhusiopathiae NCTC 8163; assay: Veterinary bacteria, MIC by two fold serial dilution in agar
Experimental: as §1

[12] = test system: M. suipneumoniae NCTC 10110; assay: Anti-mycoplasmal activity, MIC in Friis broth agarose; type: cell-based; settings: Friis broth solidified with 0.9% agarose, 6 days incubation at 37°C
[13] = test system: Neisseria catarrhalis 1502; assay: Human bacteria, MIC by serial dilution in nutrient agar; type: cell-based; settings: nutrient agar with 5% chocolated horse blood, 18 hours at 37°C
M. dispar NCTC 10125 = assay: Anti-mycoplasmal activity, MIC in Friis broth agarose; type: cell-based; settings: Friis broth solidified with 0.9% agarose, 6 days incubation at 37°C
[14] = test system: Strep. suis (group D) SPS11; assay: Veterinary bacteria, MIC by two fold serial dilution in agar
Experimental: as §1

[15] = test system: Haemophilus influenzae Wy21; assay: Human bacteria, MIC by serial dilution in nutrient agar; type: cell-based; settings: nutrient agar with 5% chocolated horse blood, 18 hours at 37°C
[16] = test system: Corynebacterium xerosis 9755; assay: as above; type: cell-based; settings: nutrient agar with 5% chocolated horse blood, 18 hours at 37°C
M. suipneumoniae TAM 6N = assay: Anti-mycoplasmal activity, MIC in Friis broth agarose; type: cell-based; settings: Friis broth solidified with 0.9% agarose, 6 days incubation at 37°C
M. suipneumoniae HK(2) = assay: as above; type: cell-based; settings: Friis broth solidified with 0.9% agarose, 6 days incubation at 37°C
M. suipneumoniae MS16 = assay: as above; type: cell-based; settings: Friis broth solidified with 0.9% agarose, 6 days incubation at 37°C
[17] = Staphylococcus aureus, read-out: MIC
[18] = Mesomycoplasma hyopneumoniae, 144 h, read-out: MIC

CC(=CC(=O)OCc1ccc(S(C)(=O)=O)cc1)CC1OCC(CC2OC2C(C)C(C)O)C(O)C1O (stereo not drawn) [Example 3, p-Methylsulphonylbenzyl monate A]
MIC (Bord. bronchiseptica B08; Bordetella bronchiseptica, B08, 18 h): 20 µg/mL (≈ 39 µM) | MIC (M. gallisepticum S6; Mycoplasmoides gallisepticum, 144 h, read-out: MIC): 0.5 µg/mL (≈ 0.975 µM) | MIC (M. hyorhinis ATCC 25021; Mesomycoplasma hyorhinis, ATCC25021, 144 h, read-out: MIC): 0.05 µg/mL (≈ 0.0975 µM) | MIC (Strep. pneumoniae CN33; Streptococcus pneumoniae, read-out: MIC): 0.5 µg/mL (≈ 0.975 µM) | MIC (Staph. aureus Russell; [17]): 2.5 µg/mL (≈ 4.88 µM) | MIC (Bacillus subtilis 6633; read-out: MIC): 0.5 µg/mL (≈ 0.975 µM) | MIC (Ps. aeruginosa 10662; Pseudomonas aeruginosa, read-out: MIC): > 100 µg/mL | MIC (Staph. aureus Oxford [1]; Staphylococcus aureus, 18 h): 1.25 µg/mL (≈ 2.44 µM) | MIC (Past. multocida PA2; Pasteurella multocida, PA2, 18 h): 0.156 µg/mL (≈ 0.304 µM) | MIC (Strep. spp. 64/848-C; read-out: MIC): 0.5 µg/mL (≈ 0.975 µM) | MIC ([2]; CY1, 18 h): > 80 µg/mL | MIC ([3]; Mesomycoplasma hyopneumoniae, ATCC25095, 144 h, read-out: MIC): 0.1 µg/mL (≈ 0.195 µM) | MIC ([4]; read-out: MIC): 0.25 µg/mL (≈ 0.488 µM) | MIC (K. aerogenes A; Klebsiella aerogenes, read-out: MIC): > 100 µg/mL | MIC (S. typhimurium S18; Salmonella enterica, TYPHIMURIUM, 18 h): > 80 µg/mL | MIC ([5]; Staphylococcus aureus, 18 h): 1.25 µg/mL (≈ 2.44 µM) | MIC ([6]; read-out: MIC): 0.05 µg/mL (≈ 0.0975 µM) | MIC (Strep. dysgalactiae SPD1; Streptococcus dysgalactiae, SPD1, 18 h): 0.156 µg/mL (≈ 0.304 µM) | MIC (M. suipneumoniae Str. 11; [18]): 0.1 µg/mL (≈ 0.195 µM) | MIC (E. coli NCTC 10418 [7]; Escherichia coli, NCTC10418, 18 h): 80 µg/mL (≈ 156 µM) | MIC (Staph. aureus Oxford [8]; [17]): 1 µg/mL (≈ 1.95 µM) | MIC (Past. haemolytica PA5; Mannheimia haemolytica, PA5, 18 h): 5 µg/mL (≈ 9.75 µM) | MIC (E. coli E1; Escherichia coli, E1, 18 h): > 80 µg/mL | MIC (E. coli NCTC 10418 [9]; Escherichia coli, NCTC10418, read-out: MIC): 100 µg/mL (≈ 195 µM) | MIC (Strep. uberis SPU1; Streptococcus uberis, SPU1, 18 h): 0.312 µg/mL (≈ 0.609 µM) | MIC ([10]; Staphylococcus aureus, 18 h): 1.25 µg/mL (≈ 2.44 µM) | MIC (E. coli ESS; Escherichia coli, read-out: MIC): 0.5 µg/mL (≈ 0.975 µM) | MIC (M. suipneumoniae JF 435; Mesomycoplasma hyopneumoniae, JF435, 144 h, read-out: MIC): 0.25 µg/mL (≈ 0.488 µM) | MIC (Strep. faecalis I; Enterococcus faecalis, read-out: MIC): 50 µg/mL (≈ 97.5 µM) | MIC ([11]; Erysipelothrix rhusiopathiae, NCTC8163, 18 h): 80 µg/mL (≈ 156 µM) | MIC ([12]; Mesomycoplasma hyopneumoniae, NCTC10110, 144 h, read-out: MIC): 0.25 µg/mL (≈ 0.488 µM) | MIC ([13]; read-out: MIC): 0.25 µg/mL (≈ 0.488 µM) | MIC (M. dispar NCTC 10125; 144 h, read-out: MIC): 0.05 µg/mL (≈ 0.0975 µM) | MIC ([14]; Streptococcus suis, 18 h): 2.5 µg/mL (≈ 4.88 µM) | MIC ([15]; read-out: MIC): 0.1 µg/mL (≈ 0.195 µM) | MIC ([16]; read-out: MIC): > 100 µg/mL | MIC (M. suipneumoniae TAM 6N; Mesomycoplasma hyopneumoniae, TAM6N, 144 h, read-out: MIC): 0.25 µg/mL (≈ 0.488 µM) | MIC (M. suipneumoniae HK(2); [18]): 0.25 µg/mL (≈ 0.488 µM) | MIC (M. suipneumoniae MS16; [18]): 0.1 µg/mL (≈ 0.195 µM)

m-Methylthiobenzyl monate A [Example 5]
MIC (Bord. bronchiseptica B08; Bord. bronchiseptica B08, Diagnostic Sensitivity Test Agar, 18 hours at 37°C): 10 µg/mL | MIC (M. gallisepticum S6): 5.0 µg/mL | MIC (M. hyorhinis ATCC 25021): 0.25 µg/mL | MIC (Strep. pneumoniae CN33): 1.0 µg/mL | MIC (Staph. aureus Russell): 1.0 µg/mL | MIC (Bacillus subtilis 6633): 0.1 µg/mL | MIC (Ps. aeruginosa 10662): >100 µg/mL | MIC (Staph. aureus Oxford [1]; Staph. aureus Oxford (veterinary panel), Diagnostic Sensitivity Test Agar, 18 hours at 37°C): .156 µg/mL | MIC (Past. multocida PA2; Past. multocida PA2, Diagnostic Sensitivity Test Agar, 18 hours at 37°C): .625 µg/mL | MIC (Strep. spp. 64/848-C): 1.0 µg/mL | MIC ([2]; Corynebacterium pyogenes CY1, Diagnostic Sensitivity Test Agar, 18 hours at 37°C): >80 µg/mL | MIC [3]: 0.5 µg/mL | MIC [4]: 10 µg/mL | MIC (K. aerogenes A): >100 µg/mL | MIC (S. typhimurium S18; S. typhimurium S18, Diagnostic Sensitivity Test Agar, 18 hours at 37°C): >80 µg/mL | MIC ([5]; Staph. aureus B4 (pen. resistant), Diagnostic Sensitivity Test Agar, 18 hours at 37°C): .156 µg/mL | MIC [6]: 1.0 µg/mL | MIC (Strep. dysgalactiae SPD1; Strep. dysgalactiae SPD1, Diagnostic Sensitivity Test Agar, 18 hours at 37°C): .07 µg/mL | MIC (M. suipneumoniae Str. 11): 0.25 µg/mL | MIC (E. coli NCTC 10418 [7]; E. coli NCTC 10418 (veterinary panel), Diagnostic Sensitivity Test Agar, 18 hours at 37°C): >80 µg/mL | MIC (Staph. aureus Oxford [8]): 0.5 µg/mL | MIC (Past. haemolytica PA5; Past. haemolytica PA5, Diagnostic Sensitivity Test Agar, 18 hours at 37°C): 10 µg/mL | MIC (E. coli E1; E. coli E1, Diagnostic Sensitivity Test Agar, 18 hours at 37°C): >80 µg/mL | MIC (E. coli NCTC 10418 [9]): >100 µg/mL | MIC (Strep. uberis SPU1; Strep. uberis SPU1, Diagnostic Sensitivity Test Agar, 18 hours at 37°C): .07 µg/mL | MIC ([10]; Staph. aureus 152 (pen. sens.), Diagnostic Sensitivity Test Agar, 18 hours at 37°C): .156 µg/mL | MIC (E. coli ESS): 5.0 µg/mL | MIC (M. suipneumoniae JF 435): 0.5 µg/mL | MIC (Strep. faecalis I): 100 µg/mL | MIC ([11]; Erysipelothrix rhusiopathiae NCTC 8163, Diagnostic Sensitivity Test Agar, 18 hours at 37°C): 5 µg/mL | MIC [12]: 0.5 µg/mL | MIC [13]: 0.5 µg/mL | MIC (M. dispar NCTC 10125): 0.1 µg/mL | MIC ([14]; Strep. suis (group D) SPS11, Diagnostic Sensitivity Test Agar, 18 hours at 37°C): 1.25 µg/mL | MIC [15]: 1.0 µg/mL | MIC [16]: >100 µg/mL | MIC (M. suipneumoniae TAM 6N): 0.5 µg/mL | MIC (M. suipneumoniae HK(2)): 0.5 µg/mL | MIC (M. suipneumoniae MS16): 0.25 µg/mL
